Data reported in ChEMBL document CHEMBL3585247, “In Vitro Inhibitory Effects of 8-O-Demethylmaritidine and Undulatine on Acetylcholinesterase and Their Predicted Penetration across the Blood-Brain Barrier” (J Nat Prod, 2015).

Legend:
Acetylcholinesterase = Acetylcholinesterase (Electrophorus electricus, UniProt O42275); assay: Inhibition of electric eel AChE using acetylthiocholine as substrate assessed as concentration of 5-thio-2-nitrobenzoic acid ion formed by spectrophotometric/Ellman's method
[1] = Permeability of the compound by PAMPA-BBB assay

Sequence of Acetylcholinesterase (O42275 whole entry): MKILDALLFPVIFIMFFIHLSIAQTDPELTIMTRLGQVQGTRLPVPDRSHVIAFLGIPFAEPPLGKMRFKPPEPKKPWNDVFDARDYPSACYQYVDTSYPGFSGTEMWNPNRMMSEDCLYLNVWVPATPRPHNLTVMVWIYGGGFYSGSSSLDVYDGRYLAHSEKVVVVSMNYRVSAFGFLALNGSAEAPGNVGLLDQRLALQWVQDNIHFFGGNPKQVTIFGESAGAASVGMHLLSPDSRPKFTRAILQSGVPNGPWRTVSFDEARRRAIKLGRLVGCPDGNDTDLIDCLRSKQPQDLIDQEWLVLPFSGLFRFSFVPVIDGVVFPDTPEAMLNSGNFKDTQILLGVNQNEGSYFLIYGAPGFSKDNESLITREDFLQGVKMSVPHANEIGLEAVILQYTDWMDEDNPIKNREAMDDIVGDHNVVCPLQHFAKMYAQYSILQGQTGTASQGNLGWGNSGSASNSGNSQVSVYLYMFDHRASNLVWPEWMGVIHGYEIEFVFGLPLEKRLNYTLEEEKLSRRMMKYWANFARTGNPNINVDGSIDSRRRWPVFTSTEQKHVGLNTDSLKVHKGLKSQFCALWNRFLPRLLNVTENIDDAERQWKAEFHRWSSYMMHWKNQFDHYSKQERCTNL

| Structure (SMILES) | IC50 (Acetylcholinesterase) [µM] | Papp [1] [×10⁻⁶ cm/s] |
| --- | --- | --- |
| COc1c2c(cc3c1[C@@]14CCN(C3)[C@@H]1C[C@@H](OC)[C@@H]1O[C@@H]14)OCO2 | 7.4 | 18.3 |
| COc1cc2c(cc1O)CN1CC[C@@]23C=CC(O)C[C@H]13 (some centres undefined) | 57.4 | 0.7 |
